# pIC50: −log10 of the molar value.
# Key:
# [1] = Selectivity index, ratio of IC50 for rat L6 cells to IC50 for Plasmodium falciparum K1; format: toxicity, cell-based; settings: read-out: Ratio IC50
# Plasmodium berghei [2] = assay: Antimalarial activity against Plasmodium berghei ANKA infected in albino mice (Mus musculus) assessed as reduction in parasitemia at 30 mg/kg, intraperitoneal for 4 days; format: functional; set-up: scale not given: the % may be the effect or the level left
# Mus musculus [3] = assay: Toxicity in albino mouse assessed as mean survival days at 30 mg/kg, ip for 4 days; format: organism-based; set-up: dose 30 mg/kg, route intraperitoneal; settings: in vivo, 96 h
# L6 = assay: Cytotoxicity against rat L6 cells; format: cell-based
# Plasmodium falciparum = assay: Antiplasmodial activity against Plasmodium falciparum K1 infected in human blood by [3H]hypoxanthine incorporation assay; format: functional, organism-based
# Plasmodium berghei [4] = assay: Antimalarial activity against Plasmodium berghei ANKA infected in albino mice (Mus musculus) assessed as reduction in parasitemia at 50 mg/kg, intraperitoneal for 4 days; format: functional; set-up: scale not given: the % may be the effect or the level left
# Mus musculus [5] = assay: Toxicity in albino mouse assessed as mean survival days at 50 mg/kg, ip for 4 days; format: organism-based; set-up: dose 50 mg/kg, route intraperitoneal; settings: in vivo, 96 h
# Mus musculus [6] = assay: Toxicity in albino mouse assessed as mean survival days at 10 mg/kg, ip for 4 days; format: organism-based; set-up: dose 10 mg/kg, route intraperitoneal; settings: in vivo, 96 h
Compound,pIC50 (Plasmodium falciparum),selectivity ratio [1],Activity (Plasmodium berghei [2]) [%],MSD (Mus musculus [3]) [days],pIC50 (L6),Activity (Plasmodium berghei [4]) [%],MSD (Mus musculus [5]) [days],MSD (Mus musculus [6]) [days]
CN(C)C12CCN(CCN3CCCC3)C(C(c3ccccc3)C1)C(c1ccccc1)C2 (stereo unspecified),–,136,–,–,–,–,–,–
O=C(CCN1CCCCC1)N1CCC2(N3CCCCC3)CC(c3ccccc3)C1C(c1ccccc1)C2 (racemic),6.72,336,–,–,4.19,36.5,6,–
CCN(CC)CCCC(C)Nc1ccnc2cc(Cl)ccc12 (stereo unspecified) [CHLOROQUINE],–,–,–,–,–,–,–,20
CCN1CCN(CCN2CCC3(N(C)C)CC(c4ccccc4)C2C(c2ccccc2)C3)CC1 (racemic),6.47,170,–,–,4.24,–,–,–
CN(C)C12CCN(CCCN3CCCCC3)C(C(c3ccccc3)C1)C(c1ccccc1)C2 (racemic),6.44,162,–,–,4.23,–,–,–
c1ccc(C2CC3(N4CCCC4)CCN(CCN4CCCC4)C2C(c2ccccc2)C3)cc1 (stereo unspecified),–,116,–,–,–,–,–,–
CN(C)C12CCN(C(=O)CCN3CCCCC3)C(C(c3ccccc3)C1)C(c1ccccc1)C2 (racemic),5.97,120,–,–,3.89,–,–,–
C[C@@H]1CC[C@H]2[C@@H](C)C(=O)O[C@@H]3O[C@@]4(C)CC[C@@H]1[C@]32OO4 [ARTEMISININ],8.19,–,–,–,–,–,–,–
O=C(CCN1CCCCC1)N1CCC2(N3CCCC3)CC(c3ccccc3)C1C(c1ccccc1)C2 (racemic),6.44,300,27.2,6.7,3.97,–,–,–

# Further compounds by rising pIC50 (Plasmodium falciparum), results first:
pIC50 (Plasmodium falciparum),Compound,selectivity ratio [1],Activity (Plasmodium berghei [2]) [%],MSD (Mus musculus [3]) [days],pIC50 (L6),Activity (Plasmodium berghei [4]) [%],MSD (Mus musculus [5]) [days],MSD (Mus musculus [6]) [days]
6.74,CCN1CCN(CCN2CCC3(N4CCCC4)CC(c4ccccc4)C2C(c2ccccc2)C3)CC1 (racemic),298,8.9,7,4.27,–,–,–
6.85,CCN1CCN(CCN2CCC3(N4CCCCC4)CC(c4ccccc4)C2C(c2ccccc2)C3)CC1 (racemic),482,0,7,4.17,–,–,–
6.92,c1ccc(C2CC3(N4CCCCC4)CCN(CCCN4CCCCC4)C2C(c2ccccc2)C3)cc1 (racemic),1150,–,–,3.86,30.4,8,–
6.96,O=C(CN1CCCC1)NC1CC2(N3CCCCC3)CC(c3ccccc3)C1C(c1ccccc1)C2 (stereo unspecified),191,–,–,4.68,–,–,–
7.00,c1ccc(C2CC3(N4CCCC4)CCN(CCCN4CCCCC4)C2C(c2ccccc2)C3)cc1 (racemic),287,31,7,4.54,–,–,–

# Source: ChEMBL document CHEMBL1221362, “Dialkylaminoalkyl derivatives of bicyclic compounds with antiplasmodial activity” (Bioorg Med Chem, 2010)
